From the METLIN SMRT retention time set (Domingo-Almenara et al. 2019)

Test: gradient 5% acetonitrile 3 min, to 50% in 2 min, to 85% in 15 min, held 3 min, 100 µL/min
Conditions: column: Zorbax Extend-C18 2.1 x 50 mm; eluents: water / acetonitrile, 0.1% formic acid
Procedure, shortened: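 A Zorbax Extend-C18 column (2.1 × 50 mm, 1.8 μm) run at 100 μL/min with water and acetonitrile, both containing 0.1% formic acid, separated mixtures of ~100 pure standards. The HPLC was coupled to a quadrupole time-of-flight mass spectrometer operated in positive and negative ionization mode, with dead and dwell volumes of 40 μL and 900 μL. Each retention time was taken from a computationally picked adduct peak that was then manually inspected.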

| RP-LC retention time [s] | SMILES |
| --- | --- |
| 851 | CCc1nnc(-c2ccc3ccn(CC(=O)NCc4ccccc4OC)c3c2)o1 |
| 775 | COCCN1C(=O)Cc2ccccc2C1C(=O)NCc1ccccc1Br (stereo not drawn) |
| 786 | COC(=O)c1cccc(NC(=O)Cn2nc3c(N4CCC(C)CC4)nccn3c2=O)c1 |
| 696 | Cc1ccc(S(=O)(=O)Nc2cc(-c3cn4ccc(C)cc4n3)ccc2C)cc1 |
| 926 | COc1ccc(N2CC(c3nc(-c4ccccc4Cl)no3)CC2=O)cc1 (stereo not drawn) |
| 598 | O=C(NCC1CCN(c2cc(-c3ccncc3)[nH]n2)CC1)c1ccc2c(c1)OCO2 |
| 627 | COc1ccc(N2CCN(c3nc(C(=O)N4CCN(C(C)C)CC4)cs3)CC2)cc1 |
| 754 | COC(=O)c1ccc2c(=O)n(-c3ccc(Cl)cc3)c(N3CCC(C(N)=O)CC3)nc2c1 |
| 567 | O=C(CSc1nc(CC(=O)N2CCN(c3ccccn3)CC2)cs1)c1cccs1 |
| 678 | O=C(NCc1ccc(Cl)cc1)c1cn2c(n1)COCC2 |
| 665 | CCOCCCNC(=O)C1CCCN(c2cc(=O)n(C)c(=O)n2C)C1 (stereo not drawn) |
| 636 | Cn1nnnc1C1CCCN(C(=O)C2CCC2)C1 (stereo not drawn) |
| 693 | Cc1cc(Nc2ccccc2)nc(N2CCN(C(=O)Nc3ccccc3)CC2)n1 |
| 940 | Cc1cc(=O)n(CC(=O)NCc2ccc3c(c2)OCO3)c(-c2ccc(F)cc2)n1 |
| 1210 | COc1ccccc1N1CCN(c2ncc(C(F)(F)F)cc2Cl)CC1 |
| 655 | CCc1nncn1C1CCN(C(=O)c2cc(C)cc(C)c2)CC1 |
| 1030 | Cc1csc(-c2cc(S(=O)(=O)NCCC3=CCCCC3)cn2CC(=O)N2CCCC2)n1 |
| 878 | O=C(Cn1c(=O)oc2ccc(Cl)cc21)NC1CCCCC1 |
| 926 | CCc1noc(NC(C)=O)c1-c1ccc(C)c(S(=O)(=O)N2CCCCCC2)c1 |
| 567 | CCN1CCN(CCCNC(=O)c2ccc(CS(=O)c3ccccc3Cl)o2)CC1 (stereo not drawn) |
| 717 | CC1CCN(C(=O)C2CCc3sc(C(=O)N(C)C)cc3C2)CC1 (stereo not drawn) |
| 1090 | COc1ccc(-n2ncc3c(=O)n(Cc4nc(-c5ccc(Br)cc5)no4)cnc32)cc1 |

| RP-LC retention time [s] | SMILES |
| --- | --- |
| 568 | CCn1c(=O)c2ccn(CC(=O)NCc3cccnc3)c2n(CC)c1=O |
| 608 | O=C(Cn1ncc2c(N3CCN(c4ccccn4)CC3)ncnc21)Nc1ccccc1Br |
| 610 | Oc1ccc(-c2nc3ncccn3c2Nc2ccc3c(c2)OCCO3)cc1 |
| 1020 | Cc1ccc2c(c1)N(Cc1nc(-c3ccc4c(c3)OCO4)no1)C(=O)CO2 |
| 625 | O=C(NCc1ccc(-n2ccnc2)cc1)c1ccc(F)c(F)c1 |
| 672 | CC(=O)N1CCc2cc(-c3ccc(C(=O)NCCCN4CCCC4=O)cc3)ccc21 |
| 727 | O=c1cc(CSc2nnc(-c3ccc4c(c3)OCO4)o2)nc2sccn12 |
| 676 | CC(C)CN1C(=O)c2cccn2CC1C(=O)NCc1ccc2c(c1)OCO2 (stereo not drawn) |
| 810 | O=C(NCCc1csc(-c2cccc(F)c2)n1)Nc1c(F)cccc1F |
| 684 | COc1ccc(C2(C(=O)N3CCC4(CC3)CN(C(C)C)C4c3ccccc3)CC2)cc1 (stereo not drawn) |
| 756 | COc1cccc(CC(=O)N2CCC3(CC2)NC(=O)c2ccc(F)cc2N3C)c1 |
| 568 | O=C(Cn1cnc(-c2ccc(Cl)cc2)cc1=O)NCc1cccnc1 |
| 788 | Cc1ccc(S(=O)(=O)N2CCC3(CC2)NCCN=C3NCc2ccccc2C)c(C)c1 |
| 651 | O=C(Nc1ccc2c(c1)OCO2)c1coc(NC(=O)c2ccco2)n1 |
| 1250 | CCOc1ccc(C2Cn3nnc(-c4nc(-c5ccc(F)c(F)c5)no4)c3CO2)cc1 (stereo not drawn) |
| 736 | Cc1ccc(NC(=O)N2CCC(c3cc(N)on3)CC2)c(Cl)c1 |
| 650 | O=C(Cn1ncc2c(N3CCN(c4ccccn4)CC3)ncnc21)Nc1ccc(F)cc1Cl |
| 607 | CN1CC(=O)N(CC(=O)Nc2ccc(-c3nc4ccccc4[nH]3)cc2)c2ccccc2C1=O |
| 678 | COc1ccccc1NC(=O)N1CCC(c2cc(N)on2)CC1 |
| 818 | CC(=O)c1ccc(NC(=O)Cn2nc3c4cc(-c5ccccc5)nn4ccn3c2=O)cc1 |
| 1210 | Cc1cccn2c(NCc3ccccc3)c(-c3ccccc3OC(=O)C(C)Cl)nc12 (stereo not drawn) |
| 925 | Cc1cc(NC(=O)c2ccccc2-c2nc(-c3ccccc3)no2)no1 |

| RP-LC retention time [s] | SMILES |
| --- | --- |
| 1040 | Cc1nc(-c2cc(S(=O)(=O)N3CCC(C(=O)N4CCc5ccccc54)CC3)c(C)s2)no1 |
| 812 | CCc1ccc(-c2cc3c(=O)n(CC(=O)NCCCN4CCCC4=O)nc(C)n3n2)cc1 |
| 908 | Cc1cc(Cl)ccc1NC(=O)N1C[C@@H](F)C[C@H]1C(=O)N1CCc2ccccc2C1 |
| 612 | CN(CCc1ccncc1)C(=O)C1CCN(c2cnn(Cc3ccccc3)c(=O)c2)CC1 |
| 683 | Cc1nn(C2CCS(=O)(=O)C2)c2nc(-c3ccco3)cc(C(=O)NCC3CCCO3)c12 (stereo not drawn) |
| 880 | COC(=O)c1cc(OCC(=O)Nc2cc(F)ccc2F)c2cc(OC)ccc2n1 |
| 631 | CCOC(=O)C1CCN(C(=O)c2nc(N3CCCC3)c3c(C)cc(C)nc3n2)CC1 |
| 1010 | Cc1ccc(-c2cc3c(N4CCCC(C(=O)NC5CCCCC5)C4)nccn3n2)c(C)c1 (stereo not drawn) |
| 605 | c1cncc(-c2nc(-c3ccc(OC4CNC4)cc3)no2)c1 |
| 735 | COc1ccc(CC(=O)Nc2ccc(-c3nc(C)no3)cc2)cc1OC |
| 788 | Cc1nnc([C@@H]2CC(F)(F)CN2C(=O)c2nn(C)c3ccccc23)o1 |
| 652 | CCOc1ccc(CC(=O)NCC(=O)Nc2nc3ccccc3[nH]2)cc1OCC |
| 567 | O=C(N[C@@H]1CN(c2ncccn2)C[C@H]1CO)c1ccoc1 |
| 991 | CC(C)(C)c1ccc(C(=O)N2CCC3(CC2)N=C(c2ccccc2)NO3)cc1 |
| 844 | COc1ccccc1-n1ccn2cc(-c3ccc(F)cc3F)nc2c1=O |
| 810 | Cc1ccn2c(Nc3ccccc3C)c(-c3ccc(Cl)cc3)nc2c1 |
| 586 | Cc1cn(C)c(CC(=O)NCCCN2CCCC(C)C2)c1C(=O)O (stereo not drawn) |
| 983 | CC(CNC(=O)c1cc2sccc2n1C)c1ccccc1 (stereo not drawn) |
| 803 | Cc1ccc(NS(=O)(=O)c2cc(-c3[nH]ncc3C(=O)N3CCCC3)oc2C)cc1Cl |
| 1000 | CCOC(=O)c1noc2ncnc(N3CCc4cc(OC)c(OC)cc4C3C)c12 (stereo not drawn) |
| 746 | CCNc1cc(C)nc(N2CCN(C(=O)c3ccc(-c4ccccc4)cc3)CC2)n1 |
| 733 | Clc1ccc(Cl)c(-c2ccc(CNCc3ccccn3)o2)c1 |

| RP-LC retention time [s] | SMILES |
| --- | --- |
| 1120 | Clc1cccc(-c2nc(-c3cccc(-c4ccn[nH]4)c3)no2)c1 |
| 702 | CCOC(=O)c1ccc(NS(=O)(=O)c2cc3n(c2)CCN(C)C3=O)cc1 |
| 625 | COc1ccccc1-c1nc(-c2ccc3c(c2)ncn3CCN2CCOCC2)no1 |
| 732 | Cc1ccc(NC(=O)Cn2ncc3c(c2=O)N(C2CC2)C(=O)CS3)cc1C |
| 937 | Cn1nc(-c2nc(Cc3ccccc3)no2)c2c1CCN(C(=O)C(C)(C)C)C2 |
| 1120 | CCn1cc(-c2nc(C(=O)Nc3ccccc3C)cs2)c2cccnc21 |
| 1110 | COc1ccc(S(=O)(=O)N2CCCC(C(=O)Nc3cc(Cl)ccc3OC)C2)cc1Cl (stereo not drawn) |
| 736 | CCC(=O)N1CCc2cc(C(=O)N3CCN(c4ccc(C(C)=O)cc4)CC3)ccc21 |
| 756 | Cc1nn(-c2ccc(C(=O)NCc3ccco3)cc2)c2c1C(=O)CC(C)(C)C2 |
| 867 | CC(C)N1C(=O)c2cccnc2Sc2cc(NC(=O)Cc3ccc(F)cc3)ccc21 |
| 632 | Cc1cccc(N2CCN(Cc3nc4nc(C)cc(N5CCCC5)n4n3)CC2)c1 |
| 640 | c1cc(-c2noc(-c3ccoc3)n2)cc(N2CCCC2)n1 |
| 940 | O=C(CSc1nnc2c3cc(-c4ccc(F)cc4)nn3ccn12)Nc1ccc(F)cc1Cl |
| 608 | COCCN1C(=O)CS(=O)C12CCN(C(=O)Nc1ccc3c(c1)OCCO3)CC2 (stereo not drawn) |
| 817 | CC(=O)Nc1ccc(NC(=O)c2ccc3noc(-c4ccc(Cl)cc4)c3c2)cc1 |
| 660 | COC(=O)[C@@H]1[C@H]2C[C@@H]3c4[nH]c5ccccc5c4CCN3C[C@@H]2CC[C@@H]1O |
| 655 | CCOc1ccccc1NC(=O)Cn1nc2n(c1=O)CCCC2 |
| 663 | COc1ccc(-c2cc(N3CCN(C(=O)Nc4ccc(OC)cc4OC)CC3)ncn2)cc1 |
| 1100 | COc1cccc(-c2nnc(Cc3nc(-c4cccc(C(F)(F)F)c4)no3)o2)c1 |
| 1260 | CCOc1ccc(N(C)S(=O)(=O)c2ccsc2C(=O)NC(C)CCc2ccccc2)cc1 (stereo not drawn) |
| 879 | Cc1cc(S(=O)(=O)N(C)CC2CCOCC2)ccc1F |

| SMILES | RP-LC retention time [s] |
| --- | --- |
| C[C@H](N)Cc1cccc(C(F)(F)F)c1 | 655 |
